Experimental data: ChEMBL document CHEMBL1201862, “PubChem BioAssay data set” (2004)
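Where inhibition never reached the appropriate level, the endpoint shown equals the highest concentration tested. Otherwise, values were interpolated linearly from a five-concentration, 48-hour dose response in 96-well plates. GI50 is the concentration that inhibits growth by half.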 Activity calls are given as the source filed them. Rule as the data show it: active = GI50 up to about 1.1 µM and inactive = higher.

What was measured:
Experiment in all cases: DTP human tumour cell line panel, 48 h
A498 = system: A498
CCRF-CEM = system: CCRF-CEM
MOLT-4 = system: MOLT-4
Hs-578T = system: Hs-578T
RPMI-8226 = system: RPMI-8226
NCI-H226 = system: NCI-H226
Malme-3M = system: Malme-3M
UO-31 = system: UO-31
SF-295 = system: SF-295
SF-268 = system: SF-268
HCT-116 = system: HCT-116
NCI-H522 = system: NCI-H522
SW-620 = system: SW-620
HOP-62 = system: HOP-62
MDA-MB-231 = system: MDA-MB-231
CAKI-1 = system: CAKI-1
NCI/ADR-RES = system: NCI/ADR-RES
RXF 393 = system: RXF 393
HL-60 = system: HL-60
SK-OV-3 = system: SK-OV-3

Compound	GI50 (A498)	GI50 (CCRF-CEM)	GI50 (MOLT-4)	GI50 (Hs-578T)	GI50 (RPMI-8226)	GI50 (NCI-H226)	GI50 (Malme-3M)	GI50 (UO-31)	GI50 (SF-295)	GI50 (SF-268)	GI50 (HCT-116)	GI50 (NCI-H522)	GI50 (SW-620)	GI50 (HOP-62)	GI50 (MDA-MB-231)	GI50 (CAKI-1)	GI50 (NCI/ADR-RES)	GI50 (RXF 393)	GI50 (HL-60)	GI50 (SK-OV-3)
CC(=O)ON(C(C)=O)c1ccc(-c2nc3ccccc3s2)cc1C	5.11 µM (inactive)	23.7 µM (inactive)	66.7 µM (inactive)	37.8 µM (inactive)	48.2 µM (inactive)	2.6 µM (inactive)	> 100 µM (inactive)	50.2 µM (inactive)	31.6 µM (inactive)	52.1 µM (inactive)	23.4 µM (inactive)	38.5 µM (inactive)	38.3 µM (inactive)	21.2 µM (inactive)	33.8 µM (inactive)	10.4 µM (inactive)	21.3 µM (inactive)	–	–	–
O=C(O)c1cc(O)nc(SCc2ccccc2)n1	> 100 µM (inactive)	–	> 100 µM (inactive)	–	–	> 100 µM (inactive)	> 100 µM (inactive)	> 100 µM (inactive)	> 100 µM (inactive)	> 100 µM (inactive)	> 100 µM (inactive)	> 100 µM (inactive)	> 100 µM (inactive)	> 100 µM (inactive)	> 100 µM (inactive)	> 100 µM (inactive)	> 100 µM (inactive)	> 100 µM (inactive)	> 100 µM (inactive)	–
c1ccc(CSP234N5CCN2CCN3CCN4CC5)c(CSP234N5CCN2CCN3CCN4CC5)c1	–	45.4 µM (inactive)	65.2 µM (inactive)	80.2 µM (inactive)	27.7 µM (inactive)	–	–	81.1 µM (inactive)	> 100 µM (inactive)	> 100 µM (inactive)	> 100 µM (inactive)	46.6 µM (inactive)	> 100 µM (inactive)	> 100 µM (inactive)	> 100 µM (inactive)	> 100 µM (inactive)	> 100 µM (inactive)	–	3.65 µM (inactive)	–
Cn1c(=O)c(Br)c(C=O)n(CCO[N+](=O)[O-])c1=O	18.2 µM (inactive)	1.62 µM (inactive)	1.87 µM (inactive)	31 µM (inactive)	2.26 µM (inactive)	51.3 µM (inactive)	–	> 10 µM (inactive)	–	4.28 µM (inactive)	3.78 µM (inactive)	–	2.26 µM (inactive)	21.6 µM (inactive)	2.53 µM (inactive)	–	1.74 µM (inactive)	–	1.77 µM (inactive)	18.5 µM (inactive)
O=C1CCC2(c3ccccc3)Nc3ccncc3N12 (stereo not given)	–	> 10 µM (inactive)	> 10 µM (inactive)	> 10 µM (inactive)	–	> 10 µM (inactive)	> 10 µM (inactive)	> 10 µM (inactive)	> 10 µM (inactive)	> 10 µM (inactive)	> 10 µM (inactive)	> 10 µM (inactive)	> 10 µM (inactive)	–	> 10 µM (inactive)	–	> 10 µM (inactive)	–	> 10 µM (inactive)	3.49 µM (inactive)
COc1ccc2c(c1)N=C1CSC(c3ccccc3Cl)N1C2 (stereo not given)	–	–	0.659 µM (active)	45.2 µM (inactive)	12.2 µM (inactive)	24 µM (inactive)	23.4 µM (inactive)	0.351 µM (active)	13.3 µM (inactive)	16.4 µM (inactive)	3.92 µM (inactive)	15.1 µM (inactive)	14.8 µM (inactive)	14.5 µM (inactive)	27.4 µM (inactive)	3.31 µM (inactive)	21.6 µM (inactive)	11.3 µM (inactive)	0.411 µM (active)	15.1 µM (inactive)
Cc1noc(C)c1/N=N/c1ccc2nonc2c1N	–	> 100 µM (inactive)	> 100 µM (inactive)	–	> 100 µM (inactive)	–	> 100 µM (inactive)	21 µM (inactive)	67.3 µM (inactive)	> 100 µM (inactive)	> 100 µM (inactive)	–	> 100 µM (inactive)	79.4 µM (inactive)	> 100 µM (inactive)	> 100 µM (inactive)	> 100 µM (inactive)	> 100 µM (inactive)	> 100 µM (inactive)	36.7 µM (inactive)
O=C1CSC(c2ccccc2O)N1c1ccc(Oc2ccc(Cl)cc2)c(Cl)c1 (stereo not given)	–	17.6 µM (inactive)	25.9 µM (inactive)	14.9 µM (inactive)	19.8 µM (inactive)	30.8 µM (inactive)	11.9 µM (inactive)	5.94 µM (inactive)	16.3 µM (inactive)	12.9 µM (inactive)	15.3 µM (inactive)	15.3 µM (inactive)	31.4 µM (inactive)	18.2 µM (inactive)	16.9 µM (inactive)	23.3 µM (inactive)	20.6 µM (inactive)	–	16.6 µM (inactive)	21 µM (inactive)
O=C(Nc1ccc(N2C(=O)CSC2c2cccs2)cc1)c1ccc(N2C(=O)CSC2c2cccs2)cc1 (stereo not given)	–	44.2 µM (inactive)	39.5 µM (inactive)	> 100 µM (inactive)	–	–	> 100 µM (inactive)	> 100 µM (inactive)	53 µM (inactive)	> 100 µM (inactive)	> 100 µM (inactive)	36.1 µM (inactive)	> 100 µM (inactive)	95.3 µM (inactive)	> 100 µM (inactive)	> 100 µM (inactive)	> 100 µM (inactive)	> 100 µM (inactive)	–	> 100 µM (inactive)
CSC1(Cc2ccccn2)C(=O)Nc2cccc([N+](=O)[O-])c21 (stereo not given)	–	48 µM (inactive)	33.3 µM (inactive)	> 100 µM (inactive)	78 µM (inactive)	> 100 µM (inactive)	47.9 µM (inactive)	> 100 µM (inactive)	> 100 µM (inactive)	> 100 µM (inactive)	79.1 µM (inactive)	61.1 µM (inactive)	56.4 µM (inactive)	> 100 µM (inactive)	> 100 µM (inactive)	> 100 µM (inactive)	> 100 µM (inactive)	–	42.3 µM (inactive)	> 100 µM (inactive)
CC(=O)n1cc(OP(=O)(Oc2ccccc2)Oc2ccccc2)c2ccccc21	54 µM (inactive)	22.9 µM (inactive)	16.9 µM (inactive)	40.8 µM (inactive)	19.2 µM (inactive)	27.7 µM (inactive)	36.4 µM (inactive)	22.1 µM (inactive)	38.9 µM (inactive)	19.7 µM (inactive)	21.4 µM (inactive)	–	44.2 µM (inactive)	–	24.8 µM (inactive)	13.1 µM (inactive)	16.7 µM (inactive)	–	16 µM (inactive)	–
N=C(N)N/N=C/c1c(-c2ccc(Cl)c(Cl)c2Cl)nc2sccn12	1.1 µM (active)	–	–	1.91 µM (inactive)	–	1.68 µM (inactive)	–	1.46 µM (inactive)	1.79 µM (inactive)	1.76 µM (inactive)	1.55 µM (inactive)	1.23 µM (inactive)	1.69 µM (inactive)	1.69 µM (inactive)	1.21 µM (inactive)	1.82 µM (inactive)	–	–	1.63 µM (inactive)	1.91 µM (inactive)
Cc1ccnc(NC(=S)Nc2ccc([N+](=O)[O-])cc2)c1	–	> 100 µM (inactive)	> 100 µM (inactive)	24 µM (inactive)	> 100 µM (inactive)	> 100 µM (inactive)	–	> 100 µM (inactive)	62.8 µM (inactive)	63.5 µM (inactive)	> 100 µM (inactive)	–	> 100 µM (inactive)	78 µM (inactive)	–	–	56.5 µM (inactive)	> 100 µM (inactive)	> 100 µM (inactive)	37.9 µM (inactive)
CO/C=C/C=C(\C#N)C(=O)OC	> 100 µM (inactive)	26.3 µM (inactive)	16.9 µM (inactive)	> 100 µM (inactive)	> 100 µM (inactive)	> 100 µM (inactive)	> 100 µM (inactive)	> 100 µM (inactive)	> 100 µM (inactive)	> 100 µM (inactive)	> 100 µM (inactive)	> 100 µM (inactive)	> 100 µM (inactive)	> 100 µM (inactive)	> 100 µM (inactive)	> 100 µM (inactive)	> 100 µM (inactive)	–	–	> 100 µM (inactive)
CCn1nc(-c2ccccc2)c2c1N(C)c1ccccc1-n1c(-c3ccccc3)nnc1-2	1.46 µM (inactive)	18.8 µM (inactive)	> 10 µM (inactive)	19 µM (inactive)	9.68 µM (inactive)	17.2 µM (inactive)	–	14.2 µM (inactive)	–	16.1 µM (inactive)	13.1 µM (inactive)	–	16.1 µM (inactive)	17.9 µM (inactive)	13.4 µM (inactive)	–	14.9 µM (inactive)	–	> 10 µM (inactive)	18.9 µM (inactive)
COc1ccc(NC(=O)C2=C(SC)C(C#N)C(=O)N=C2N)cc1 (stereo not given)	> 100 µM (inactive)	25.7 µM (inactive)	55.3 µM (inactive)	89.1 µM (inactive)	> 100 µM (inactive)	> 100 µM (inactive)	26.9 µM (inactive)	72.1 µM (inactive)	> 100 µM (inactive)	> 100 µM (inactive)	> 100 µM (inactive)	15.1 µM (inactive)	67.1 µM (inactive)	> 100 µM (inactive)	> 100 µM (inactive)	46.3 µM (inactive)	–	> 100 µM (inactive)	31.2 µM (inactive)	> 100 µM (inactive)
COc1cc2c(cc1OC)C(OC)N(C)c1c-2ccc2cc3c(cc12)OCO3 (stereo not given)	0.458 µM (active)	0.653 µM (active)	0.611 µM (active)	–	1.47 µM (inactive)	1.11 µM (active)	3.51 µM (inactive)	18.1 µM (inactive)	2.82 µM (inactive)	0.094 µM (active)	1.66 µM (inactive)	0.152 µM (active)	0.571 µM (active)	1.4 µM (inactive)	1.4 µM (inactive)	1.98 µM (inactive)	26.8 µM (inactive)	1.91 µM (inactive)	2.22 µM (inactive)	0.916 µM (active)
